Assay in all cases: Viable cell count after culture in supplemented BL broth
What all share (format): cell-based
What all share (settings): Exp. Ex. 1 carbon source; 2 parts by weight in 100 parts BL broth; 20 hours; pH about 5.0 to 6.5

The test system of experiment [1] is Pediococcus pentosaceus CBT-SL4 (KCTC 10297BP). How it is done: (§1) To promote the growth of non-specific various types of lactic acid bacteria, an optimal mixture composition was determined by culturing each of the following strains using each component, ratio and composition and measuring the viable cell count of each of the strains: Lactobacillus casei CBT-LC5 (accession number: KCTC 12398BP), Lactobacillus plantarum CBT-LP3 (accession number: KCTC 10782BP), Lactobacillus rhamnosus CBT-LR5 (accession number: KCTC 12202BP), Bifidobacterium longum CBT-BG7 (accession number: KCTC 12200BP), Bifidobacterium lactis CBT-BL3 (accession number: KCTC 11904BP), Bifidobacterium bifidum CBT-BF3 (accession number: KCTC 12199BP), Streptococcus thermophilus CBT-ST3 (accession number: KCTC 11870BP), and Pediococcus pentosaceus CBT-SL4 (accession number: KCTC 10297BP). Starter cultures were prepared using BL broth.
(§2) 0.1 to 1 part by weight of each of the starter cultures was inoculated into 100 parts by weight of each prepared medium, and then cultured for 20 hours while the pH was maintained at about 5.0 to 6.5. […] Thus, glucose or fructooligosaccharide was selected as a carbon source for a subsequent experiment (Table 2). […]
(§3) 0.1 to 1 part by weight of each starter culture was inoculated into 100 parts by weight of each of the prepared media, and then cultured for 20 hours while the pH was maintained at about 5.0 to 6.5. […]

The subject of experiment [2] is Lactobacillus plantarum CBT-LP3 (KCTC 10782BP). As for the experimental part:
as §1, §2, §3

Experiment [3] concerns Streptococcus thermophilus CBT-ST3 (KCTC 11870BP). As for the experimental part:
as §1, §2, §3

Experiment [4] concerns Bifidobacterium longum CBT-BG7 (KCTC 12200BP). As for the experimental part: as §1, §2, §3
Experiment [5] relates to Bifidobacterium lactis CBT-BL3 (KCTC 11904BP). As for the experimental part: as §1, §2, §3
The test system of experiment [6] is Lactobacillus casei CBT-LC5 (KCTC 12398BP). How it is done:
as §1, §2, §3

Experiment [7] has as its system Bifidobacterium bifidum CBT-BF3 (KCTC 12199BP). As for the experimental part:
as §1, §2, §3

Experiment [8] relates to Lactobacillus rhamnosus CBT-LR5 (KCTC 12202BP). How it is done: as §1, §2, §3

SMILES strings stand for the structures.

The text below walks through data of patent US20230392111A1, “COMPOSITION FOR PROMOTING THE GROWTH OF LACTIC ACID BACTERIA COMPRISING GROWTH FACTORS” (priority 2020, published 2023).

Turning to `O=C(CO)[C@@H](O)[C@H](O)[C@H](O)CO` [Fructose], the viable cell count in experiment [1] is reported as 550 ×10^7 cfu/ml; in experiment [2], 452 ×10^7 cfu/ml; in experiment [3], 402 ×10^7 cfu/ml; in experiment [4], 405 ×10^7 cfu/ml; in experiment [5], 522 ×10^7 cfu/ml; in experiment [6], 408 ×10^7 cfu/ml. Besides, the viable cell count was 434 ×10^7 cfu/ml in experiment [7] and 486 ×10^7 cfu/ml in experiment [8].
As for `OC[C@H]1O[C@@H](O[C@H]2[C@H](O)[C@@H](O)C(O)O[C@@H]2CO)[C@H](O)[C@@H](O)[C@H]1O` (stereo partly drawn) [Lactose], the viable cell count in experiment [1] is on record as 520 ×10^7 cfu/ml; in experiment [2], 550 ×10^7 cfu/ml; in experiment [3] it was 450 ×10^7 cfu/ml; in experiment [4], 456 ×10^7 cfu/ml; in experiment [5] it was 420 ×10^7 cfu/ml; in experiment [6] it was 405 ×10^7 cfu/ml. Moreover, the values for the viable cell count in experiment [7] and in experiment [8] were 460 ×10^7 cfu/ml and 405 ×10^7 cfu/ml, respectively.
For the compound `OC[C@H]1O[C@@](CO)(O[C@H]2O[C@H](CO)[C@@H](O)[C@H](O)[C@H]2O)[C@@H](O)[C@@H]1O` [Refined sugar], the viable cell count in experiment [1] is 580 ×10^7 cfu/ml; in experiment [2], 427 ×10^7 cfu/ml; in experiment [3], 504 ×10^7 cfu/ml; in experiment [4] it was 464 ×10^7 cfu/ml; in experiment [5], 472 ×10^7 cfu/ml; in experiment [6], 482 ×10^7 cfu/ml. For the same compound, the results for the viable cell count in experiment [7] and in experiment [8] were 325 ×10^7 cfu/ml and 425 ×10^7 cfu/ml, respectively.
